In assay [1] the target is LYN (Homo sapiens, UniProt P07948). In words: In vitro enzymatic phosphorylation assay, LYN. In kind it is biochemical.
Assay [2] concerns the target FYN (Homo sapiens, UniProt P06241). Put plainly: In vitro enzymatic phosphorylation assay, FYN. In kind it is biochemical.

Broadly, the IC50 is the midpoint of a concentration-inhibition curve. The low end stands for inhibition by little substance, the high end for a need for much substance.

Molecules are shown by their SMILES.

LYN, sequence (P07948 whole entry, species assumed): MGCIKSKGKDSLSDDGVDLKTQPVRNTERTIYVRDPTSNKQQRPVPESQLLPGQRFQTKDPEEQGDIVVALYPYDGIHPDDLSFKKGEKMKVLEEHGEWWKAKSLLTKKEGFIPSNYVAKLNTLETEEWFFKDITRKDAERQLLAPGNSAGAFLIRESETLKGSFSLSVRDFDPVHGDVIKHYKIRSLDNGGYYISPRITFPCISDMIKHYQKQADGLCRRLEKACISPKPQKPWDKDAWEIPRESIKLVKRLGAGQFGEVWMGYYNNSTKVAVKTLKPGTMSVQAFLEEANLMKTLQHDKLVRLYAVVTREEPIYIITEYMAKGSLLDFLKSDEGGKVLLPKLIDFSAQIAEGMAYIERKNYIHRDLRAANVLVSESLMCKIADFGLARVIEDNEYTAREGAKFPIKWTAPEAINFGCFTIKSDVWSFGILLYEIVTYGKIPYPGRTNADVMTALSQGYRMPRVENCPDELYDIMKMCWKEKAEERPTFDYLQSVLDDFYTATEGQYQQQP
FYN, sequence (P06241 whole entry, species assumed): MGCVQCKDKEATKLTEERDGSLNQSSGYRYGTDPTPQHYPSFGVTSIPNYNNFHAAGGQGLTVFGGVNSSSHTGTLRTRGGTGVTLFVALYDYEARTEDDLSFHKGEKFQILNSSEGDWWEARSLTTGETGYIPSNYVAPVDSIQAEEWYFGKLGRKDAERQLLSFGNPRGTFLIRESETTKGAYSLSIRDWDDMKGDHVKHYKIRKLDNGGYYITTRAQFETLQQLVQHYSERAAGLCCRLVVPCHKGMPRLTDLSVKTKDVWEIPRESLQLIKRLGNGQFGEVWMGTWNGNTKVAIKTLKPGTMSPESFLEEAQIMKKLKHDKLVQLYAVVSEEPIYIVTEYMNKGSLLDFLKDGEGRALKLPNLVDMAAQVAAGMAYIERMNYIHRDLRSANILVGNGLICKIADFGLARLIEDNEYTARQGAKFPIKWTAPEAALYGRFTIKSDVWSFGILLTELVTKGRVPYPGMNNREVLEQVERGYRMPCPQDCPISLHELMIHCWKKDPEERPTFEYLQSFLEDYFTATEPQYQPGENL

For `Cc1ccc(NC(=O)c2ccc(CN3CCN(C)CC3)cc2)cc1Nc1nc(-c2cccnc2)cs1` [masitinib, 4-(4-methylpiperazin-1-ylmethyl)-N-[4-methyl-3-(4-pyridin-3y1thiazol-2-ylamino)phenyl]benzamide], the IC50 was determined as 220 nM in assay [1] and 240 nM in assay [2].
